Results published in patent EP4741389A1, “KAT6 INHIBITOR” (Shanghai Qilu Pharmaceutical Research and Development …, priority 2023, dated 2025).

Tests used:
[1] = Body weight changes and tolerability in the ZR-75-1 xenograft study; type: in vivo, Mouse; conditions: result in words; for body weight changes: differences among the groups, FIG. 1
Description: (§1) • Species: Mouse; • Strain: BALB/c nude mice; • Age and weight: 6-8 weeks old, weighing 19-26 grams; • Gender: Female; • Supplier: GemPharmatech Co., Ltd.; • Compound source: Compound A: [drawing 190] prepared with reference to patent CN114364672A.
(§2) A mixture containing 10×10^6 ZR-75-1 cells in 100 µL PBS and 100 µL Matrigel (final volume was 200 µL) was subcutaneously implanted into the right dorsal side (upper side) of each mouse. On day 18 after cell implantation, when the average tumor volume reached 138 mm^3, grouping and administration were initiated. Mice with tumor volumes ranging from 100 to 212 mm^3 were selected for the study. Mice were randomly assigned to groups based on body weight and tumor volume, with 7 mice per group. The day of grouping was designated as PG-D0, and administration for all groups started from PG-D0.
The effects of the test drugs Compound 2, Compound 5-P2, Compound 3, and Compound A on the body weight of the female BALB/c nude mouse model with subcutaneously implanted human breast cancer ZR-75-1 cell xenografts are shown in FIG. 1.

KAT6A = biological target: T1, KAT6A (Homo sapiens, UniProt Q92794); assay: KATs acetyltransferase enzyme activity assay (TR-FRET), KAT6A; type: biochemical; conditions: Biotin-H3 (1-21) and AcCOA, 90 minutes at room temperature
T1 construct: purchased Active Motif 81223
T1 sequence (Q92794 488-778 limits assumed): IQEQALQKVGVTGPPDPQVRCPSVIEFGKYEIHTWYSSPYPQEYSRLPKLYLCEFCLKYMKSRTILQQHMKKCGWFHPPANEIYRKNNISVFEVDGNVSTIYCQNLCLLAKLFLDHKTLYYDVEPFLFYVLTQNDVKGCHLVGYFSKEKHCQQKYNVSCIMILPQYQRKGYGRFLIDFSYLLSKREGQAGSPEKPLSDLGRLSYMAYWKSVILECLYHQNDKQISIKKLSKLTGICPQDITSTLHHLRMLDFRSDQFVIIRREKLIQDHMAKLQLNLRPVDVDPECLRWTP

KAT6B = biological target: T2, KAT6B (Homo sapiens, UniProt Q8WYB5); assay: KATs acetyltransferase enzyme activity assay (TR-FRET), KAT6B; type: biochemical; conditions: Biotin-H3 (1-21) and AcCOA, 90 minutes at room temperature
T2 construct: purchased Active Motif 81224
T2 sequence (Q8WYB5 whole entry): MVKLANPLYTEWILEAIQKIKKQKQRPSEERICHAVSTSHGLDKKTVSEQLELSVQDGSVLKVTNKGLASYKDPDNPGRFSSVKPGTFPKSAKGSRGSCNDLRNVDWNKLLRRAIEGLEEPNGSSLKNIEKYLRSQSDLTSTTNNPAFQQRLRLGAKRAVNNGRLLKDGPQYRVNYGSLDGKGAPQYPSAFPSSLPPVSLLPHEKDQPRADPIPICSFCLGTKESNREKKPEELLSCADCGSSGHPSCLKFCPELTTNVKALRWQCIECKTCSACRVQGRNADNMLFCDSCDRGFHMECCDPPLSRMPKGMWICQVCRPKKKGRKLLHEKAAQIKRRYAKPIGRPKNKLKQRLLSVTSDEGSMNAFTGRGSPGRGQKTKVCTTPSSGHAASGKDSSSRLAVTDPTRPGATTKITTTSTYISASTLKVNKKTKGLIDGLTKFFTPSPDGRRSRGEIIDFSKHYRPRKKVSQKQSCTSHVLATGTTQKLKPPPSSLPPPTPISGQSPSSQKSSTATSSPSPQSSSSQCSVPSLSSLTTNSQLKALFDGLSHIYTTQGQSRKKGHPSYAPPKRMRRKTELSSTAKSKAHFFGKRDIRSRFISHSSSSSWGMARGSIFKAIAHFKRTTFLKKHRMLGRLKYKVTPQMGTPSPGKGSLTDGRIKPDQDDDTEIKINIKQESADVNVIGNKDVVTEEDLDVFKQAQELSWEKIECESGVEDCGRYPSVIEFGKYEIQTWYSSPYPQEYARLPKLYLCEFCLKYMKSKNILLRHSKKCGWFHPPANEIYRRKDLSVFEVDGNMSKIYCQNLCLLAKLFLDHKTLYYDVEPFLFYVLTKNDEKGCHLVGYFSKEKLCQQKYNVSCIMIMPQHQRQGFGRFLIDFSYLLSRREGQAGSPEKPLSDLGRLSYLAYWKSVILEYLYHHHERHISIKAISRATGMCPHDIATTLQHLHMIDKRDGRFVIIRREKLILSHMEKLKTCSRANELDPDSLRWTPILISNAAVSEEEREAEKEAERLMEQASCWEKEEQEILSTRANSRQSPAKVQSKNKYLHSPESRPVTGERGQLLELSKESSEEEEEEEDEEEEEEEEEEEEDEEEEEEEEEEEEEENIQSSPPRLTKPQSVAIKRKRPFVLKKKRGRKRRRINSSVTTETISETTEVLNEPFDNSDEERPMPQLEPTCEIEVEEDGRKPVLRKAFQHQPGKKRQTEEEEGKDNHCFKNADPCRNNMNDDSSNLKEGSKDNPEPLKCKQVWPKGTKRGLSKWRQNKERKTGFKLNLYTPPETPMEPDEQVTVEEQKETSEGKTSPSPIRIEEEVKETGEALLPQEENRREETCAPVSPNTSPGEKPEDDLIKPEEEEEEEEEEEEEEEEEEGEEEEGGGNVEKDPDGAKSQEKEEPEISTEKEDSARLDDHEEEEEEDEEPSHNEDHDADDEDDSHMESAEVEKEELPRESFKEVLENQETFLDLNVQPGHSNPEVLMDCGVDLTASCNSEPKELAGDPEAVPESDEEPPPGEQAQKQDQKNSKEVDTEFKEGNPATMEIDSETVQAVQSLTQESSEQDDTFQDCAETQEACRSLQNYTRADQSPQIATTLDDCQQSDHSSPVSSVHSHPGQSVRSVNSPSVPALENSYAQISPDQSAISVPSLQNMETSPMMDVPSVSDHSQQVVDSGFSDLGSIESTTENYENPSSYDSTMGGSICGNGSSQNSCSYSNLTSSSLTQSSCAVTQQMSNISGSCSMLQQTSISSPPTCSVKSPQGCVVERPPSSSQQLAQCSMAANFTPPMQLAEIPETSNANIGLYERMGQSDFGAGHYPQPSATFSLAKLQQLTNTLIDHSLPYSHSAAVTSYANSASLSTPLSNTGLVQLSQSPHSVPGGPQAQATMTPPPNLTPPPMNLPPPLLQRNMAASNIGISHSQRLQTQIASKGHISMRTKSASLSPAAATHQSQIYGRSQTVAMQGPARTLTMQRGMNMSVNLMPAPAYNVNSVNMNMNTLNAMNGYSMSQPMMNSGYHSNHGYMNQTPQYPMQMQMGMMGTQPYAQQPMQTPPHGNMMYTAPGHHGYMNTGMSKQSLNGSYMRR
How it was run: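 TR-FRET assay in Tris-HCl buffer: enzyme preincubated with compound 15 min at room temperature, then biotin-H3(1-21) peptide and acetyl-CoA added for 90 min at room temperature. Acetylation detected with Eu-anti-acetyl-histone H4 lysine antibody and ULight-streptavidin (60 min), 665/620 nm ratio; IC50 from four-parameter logistic fit.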

[2] = test system: human breast cancer ZR-75-1 cell xenografts; assay: In vivo efficacy study in BALB/c nude mouse model with subcutaneous ZR-75-1 xenografts; conditions: for T/C / TGI / Tumor Volume: 0.3 mg/kg; for T/C / TGI: based on tumor volume on day 21 post-administration; for Tumor Volume: day 21 post-administration, female BALB/c nude mice, 7 per group
Description: IV. In vivo efficacy study of test drug Compound 2, Compound 5-P2, Compound 3, and Compound A in a BALB/c nude mouse model with subcutaneously implanted human breast cancer ZR-75-1 cell xenografts
The objective of this experiment is to evaluate the in vivo efficacy of the test drug Compound 2, Compound 5-P2, Compound 3, and Compound A in a BALB/c nude mouse model with subcutaneously implanted human breast cancer ZR-75-1 cell xenografts.
as §1
Human breast cancer ZR-75-1 (ATCC, CRL-1500) cells were cultured in vitro as adherent cultures. The culture conditions were: 1640 medium supplemented with 10 vol% FBS, 100 U/mL penicillin, and 100 µg/mL streptomycin, incubated in a 37°C, 5% CO2 cell culture incubator. Routine passaging was performed twice a week. When cell confluence reached 80%-90% and the cell number met the requirements, cells were harvested, counted, and inoculated.
Three days before cell implantation, a 17β-estrogen pellet (0.36 mg) was implanted into the left dorsal side of each mouse. Starting one week after pellet implantation, animals were urinated 2-3 times per week. If necessary, animals were urinated daily.
as §2
The experimental index is to investigate whether tumor growth is inhibited, delayed, or cured. Tumor diameters were measured three times per week using a vernier caliper. Tumor volume was calculated using the formula: V = 0.5a × b^2, where a and b represent the major and minor diameters of the tumor, respectively.
The anti-tumor efficacy of the compounds was evaluated using TGI (%) or the relative tumor proliferation rate T/C (%). TGI (%), reflects the tumor growth inhibition rate. TGI (%) was calculated as: TGI (%) = [1 - (Mean tumor volume of a treatment group at the end of administration - Mean tumor volume of the same treatment group at the start of administration) / (Mean tumor volume of the vehicle control group at the end of treatment - Mean tumor volume of the vehicle control group at the start of treatment)] × 100%.
Relative Tumor Proliferation Rate T/C (%): The calculation formula is as follows: T/C% = TRTV / CRTV ×100 % (TRTV: RTV of the treatment group; CRTV: RTV of the negative control group). The relative tumor volume (RTV) was calculated based on tumor measurement results using the formula RTV = Vt /V0, where V0 is the tumor volume of each mouse measured at the start of grouping and administration (i.e., d0), and Vt is the tumor volume of each mouse at a specific measurement time. The mean value for each group was then calculated. V0 and Vt correspond to tumor volume data from the same mouse.

ZR-75-1 cells = assay: ZR-75-1 cell proliferation assay (CellTiter-Glo); type: cell-based; conditions: Homo sapiens, ZR-75-1, 240 h, total culture period of 10 days, read-out: ZR-75-1 Proliferation Inhibition IC50
How it was run: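 ZR-75-1 cells were exposed to compound for 10 days in total at 37°C and 5% CO2, being trypsinized, counted and re-seeded every 5 days, with fresh compound added after each re-seeding. Viability was read by CellTiter-Glo luminescence, and IC50 was derived from a four-parameter logistic fit.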

[3] = test system: ZR-75-1 H3K23 Acetylation; assay: Histone H3 acetylation assay (H3K23 acetylation in ZR-75-1 cells); type: cell-based; conditions: Homo sapiens, 72 hours incubation, Odyssey CLx fluorescence, read-out: ZR-75-1 H3K23 Acetylation Inhibition IC50
How it was run: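 ZR-75-1 cells exposed to serially diluted compounds for 72 h at 37°C, then fixed with 4 w/v% paraformaldehyde, methanol-permeabilized and immunostained for acetyl-H3K23 and total histone H4. Fluorescent secondary antibody signals quantified by imaging; IC50 from four-parameter logistic nonlinear regression.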

IC50 (KAT6A) | IC50 (KAT6B) | IC50 [3] | SMILES | body weight changes [1] | tolerability in tumor-bearing mice ([1]; human breast cancer ZR-75-1 model) | T/C [2] | TGI [2] | Tumor Volume [2] | anti-tumor effects ([2]; ZR-75-1 xenograft model, tumor growth curves FIG. 2, result in words) | IC50 (ZR-75-1 cells)
1.7 nM | 8 nM | 3.7 nM | COc1ccc2c(c1S(=O)(=O)Nc1noc3cc(Cn4cccn4)c4c(c13)OCC4)OCC21CC1 [Compound 36, N-(4-((1H-Pyrazol-1-yl)methyl)-2,3-dihydrobenzofuro[7,6-d]isoxazol-8-yl)-6-methoxy-2H-spiro[benzofuran-3,1'-cyclopropane]-7-sulfonamide] |  |  |  |  |  |  | 0.4 nM
1.6 nM | 4.1 nM | 1.2 nM | COc1ccc2c(c1S(=O)(=O)Nc1noc3cc(Cn4cccn4)c4c(c13)OCC4)OCC1CC21 (centres unmarked) [Compound 37, N-(4-((1H-Pyrazol-1-yl)methyl)-2,3-dihydrobenzofuro[7,6-d]isoxazol-8-yl)-5-methoxy-1,1a,2,7b-tetrahydrocyclopropa[c]chromene-4-sulfonamide] |  |  |  |  |  |  | 0.4 nM
2.2 nM | 37.6 nM | 23.7 nM | COc1ccc2c(c1S(=O)(=O)Nc1noc3cc(Cn4cccn4)c(OC)c(C)c13)OCC21CC1 [Compound 39, N-(6-((1H-Pyrazol-1-yl)methyl)-5-methoxy-4-methylbenzo[d]isoxazol-3-yl)-6-methoxy-2H-spiro[benzofuran-3,1'-cyclopropane]-7-sulfonamide] |  |  |  |  |  |  | 2.6 nM
1.7 nM | 12.9 nM | 12.4 nM | COc1ccc2c(c1S(=O)(=O)Nc1noc3cc(Cn4cccn4)c(OC)c(C)c13)OCC1CC21 (centres unmarked) [Compound 40, N-(6-((1H-Pyrazol-1-yl)methyl)-5-methoxy-4-methylbenzo[d]isoxazol-3-yl)-5-methoxy-1,1a,2,7b-tetrahydrocyclopropa[c]chromene-4-sulfonamide] |  |  |  |  |  |  | 1.6 nM
8.9 nM | 97.5 nM | 20.2 nM | COc1ccc2c(c1S(=O)(=O)Nc1noc3cc(Cn4cccn4)cc(OC)c13)OCCCN2C [Compound 41, N-(6-((1H-Pyrazol-1-yl)methyl)-4-methoxybenzo[d]isoxazol-3-yl)-8-methoxy-5-methyl-2,3,4,5-tetrahydrobenzo[b][1,4]oxazepine-9-sulfonamide] |  |  |  |  |  |  | 4.8 nM
 |  |  | COc1ccccc1S(=O)(=O)Nc1noc2cc(Cn3cccn3)cc(OC)c12 [Compound A, reference compound] | not significant |  | 33.17% | 80.40% | 278 ± 44 mm^3 |  | 

SMILES | IC50 (KAT6A) | IC50 (KAT6B) | IC50 [3] | body weight changes [1] | tolerability in tumor-bearing mice ([1]; human breast cancer ZR-75-1 model) | T/C [2] | TGI [2] | Tumor Volume [2] | anti-tumor effects ([2]; ZR-75-1 xenograft model, tumor growth curves FIG. 2, result in words) | IC50 (ZR-75-1 cells)
COc1ccc2c(c1S(=O)(=O)Nc1noc3cc(Cn4cccn4)cc(OC)c13)OCC21CC1 [Compound 3, N-(6-((1H-Pyrazol-1-yl)methyl)-4-methoxybenzo[d]isoxazol-3-yl)-6-methoxy-2H-spiro[benzofuran-3,1'-cyclopropane]-7-sulfonamide] | 1.8 nM | 7.5 nM |  | not significant | tolerated | 12.95% | 104.47% | 106 ± 12 mm^3 | more significant anti-tumor effects compared to Compound A | 
